# Assay results published in EP4707392A1, “DOUBLE-STRANDED OLIGONUCLEOTIDE, CONJUGATE THEREOF, AND USE THEREOF” (priority 2023, dated 2024).
# Test system: coagulation factor XI (Factor XI, FXI) mRNA
# Assay: In vitro inhibitory activity of siRNA conjugates modified with TOM against FXI mRNA, free uptake by mouse primary hepatocytes (Example 6)
# Assay type: cell-based
# Conditions: not given
# Method: The inhibitory activities of the siRNA conjugates modified with TOM at different sites of an antisense strand against a target gene FXI in mouse primary hepatocytes were evaluated by the same experimental method as that in Example 4. Differences lie in that the siRNA conjugates modified with TOM at different sites of an antisense strand were used in the present example to replace the siRNA conjugates used in Example 4, and that target gene FXI detection primers listed in Table 13 were used in the present example to replace target gene detection primers used in Example 4. Relative quantitative calculation was performed for the target gene mRNA in various test groups by the preceding ΔΔCt method.
row,Substance,in vitro activity compared with the reference sequence (RZ594001) without TOM modification
1,"RZ594011: siRNA conjugate, SEQ ID NOs 299/300 (chain 1 GUACGUGGACUGGAUUCUG; chain 2 CAGAATCCAGTCCACGTACTT; siRNA conjugate, conjugate and pattern not given here)",conducive to enhancing in vitro activity
2,"RZ594024: siRNA conjugate, SEQ ID NOs 325/326 (chain 1 GUACGUGGACUGGAUUCUG; chain 2 CAGAATCCAGTCCACGTACTT; siRNA conjugate, conjugate and pattern not given here)",conducive to enhancing in vitro activity
3,"RZ594012: siRNA conjugate, SEQ ID NOs 301/302 (chain 1 GUACGUGGACUGGAUUCUG; chain 2 CAGAATCCAGTCCACGTACTT; siRNA conjugate, conjugate and pattern not given here)",conducive to enhancing in vitro activity
4,"RZ594019: siRNA conjugate, SEQ ID NOs 315/316 (chain 1 GUACGUGGACUGGAUUCUG; chain 2 CAGAATCCAGTCCACGTACTT; siRNA conjugate, conjugate and pattern not given here)",conducive to enhancing in vitro activity
5,"RZ594005: siRNA conjugate, SEQ ID NOs 343/344 (chain 1 GUACGUGGACUGGAUUCUG; chain 2 CAGAATCCAGTCCACGTACTT; siRNA conjugate, conjugate and pattern not given here)",conducive to enhancing in vitro activity
6,"RZ594018: siRNA conjugate, SEQ ID NOs 313/314 (chain 1 GUACGUGGACUGGAUUCUG; chain 2 CAGAATCCAGTCCACGTACTT; siRNA conjugate, conjugate and pattern not given here)",conducive to enhancing in vitro activity
7,"RZ594040: siRNA conjugate, SEQ ID NOs 367/368 (chain 1 GUACGUGGACUGGAUUCUG; chain 2 CAGAATCCAGTCCACGTACTT; siRNA conjugate, conjugate and pattern not given here)",conducive to enhancing in vitro activity
8,"RZ594004: siRNA conjugate, SEQ ID NOs 341/342 (chain 1 GUACGUGGACUGGAUUCUG; chain 2 CAGAATCCAGTCCACGTACTT; siRNA conjugate, conjugate and pattern not given here)",conducive to enhancing in vitro activity
9,"RZ594015: siRNA conjugate, SEQ ID NOs 307/308 (chain 1 GUACGUGGACUGGAUUCUG; chain 2 CAGAATCCAGTCCACGTACTT; siRNA conjugate, conjugate and pattern not given here)",significantly weakened the in vitro activity
10,"RZ594016: siRNA conjugate, SEQ ID NOs 309/310 (chain 1 GUACGUGGACUGGAUUCUG; chain 2 CAGAATCCAGTCCACGTACTT; siRNA conjugate, conjugate and pattern not given here)",significantly weakened the in vitro activity
11,"RZ594009: siRNA conjugate, SEQ ID NOs 295/296 (chain 1 GUACGUGGACUGGAUUCUG; chain 2 CAGAATCCAGTCCACGTACTT; siRNA conjugate, conjugate and pattern not given here)",significantly weakened the in vitro activity
12,"RZ594014: siRNA conjugate, SEQ ID NOs 305/306 (chain 1 GUACGUGGACUGGAUUCUG; chain 2 CAGAATCCAGTCCACGTACTT; siRNA conjugate, conjugate and pattern not given here)",significantly weakened the in vitro activity
13,"RZ594013: siRNA conjugate, SEQ ID NOs 303/304 (chain 1 GUACGUGGACUGGAUUCUG; chain 2 CAGAATCCAGTCCACGTACTT; siRNA conjugate, conjugate and pattern not given here)",significantly weakened the in vitro activity
14,"RZ594035: siRNA conjugate, SEQ ID NOs 357/358 (chain 1 GUACGUGGACUGGAUUCUG; chain 2 CAGAATCCAGTCCACGTACTT; siRNA conjugate, conjugate and pattern not given here)",conducive to enhancing in vitro activity
15,"RZ594025: siRNA conjugate, SEQ ID NOs 327/328 (chain 1 GUACGUGGACUGGAUUCUG; chain 2 CAGAATCCAGTCCACGTACTT; siRNA conjugate, conjugate and pattern not given here)",conducive to enhancing in vitro activity
16,"RZ594006: siRNA conjugate, SEQ ID NOs 345/346 (chain 1 GUACGUGGACUGGAUUCUG; chain 2 CAGAATCCAGTCCACGTACTT; siRNA conjugate, conjugate and pattern not given here)",conducive to enhancing in vitro activity
17,"RZ594041: siRNA conjugate, SEQ ID NOs 369/370 (chain 1 GUACGUGGACUGGAUUCUG; chain 2 CAGAATCCAGTCCACGTACTT; siRNA conjugate, conjugate and pattern not given here)",conducive to enhancing in vitro activity
18,"RZ594030: siRNA conjugate, SEQ ID NOs 347/348 (chain 1 GUACGUGGACUGGAUUCUG; chain 2 CAGAATCCAGTCCACGTACTT; siRNA conjugate, conjugate and pattern not given here)",conducive to enhancing in vitro activity
19,"RZ594008: siRNA conjugate, SEQ ID NOs 293/294 (chain 1 GUACGUGGACUGGAUUCUG; chain 2 CAGAATCCAGTCCACGTACTT; siRNA conjugate, conjugate and pattern not given here)",significantly weakened the in vitro activity

# Test system: CC3 mRNA
# Assay: Inhibitory activity of siRNAs modified with MOE at different sites against CC3 mRNA in HepG2 cells (Example 8)
# Assay type: cell-based, human
# Conditions: MOE at a single site
# Method: In vitro activities of siRNA compounds, such as RX502165 modified with MOE at different sites of a sense strand and RX502172 modified with MOE at different sites of an antisense strand, and a reference compound RX502001 without MOE modification on HepG2 cells were evaluated using the same experimental method as that in Example 2. A difference lies in that the siRNA compounds modified with MOE at different sites of the sense and antisense strands were used in the present example to replace the siRNA compounds used in Example 2. Relative quantitative calculation was performed for the target gene mRNA in various test groups by the preceding ΔΔCt method.
row,Substance,in vitro activity compared with the reference sequence (RX502001) without MOE modification
1,"RZ594011: siRNA conjugate, SEQ ID NOs 299/300 (chain 1 GUACGUGGACUGGAUUCUG; chain 2 CAGAATCCAGTCCACGTACTT; siRNA conjugate, conjugate and pattern not given here)",conducive to elevating the in vitro activity
